Drawing on ChEMBL document CHEMBL1151316, “Pyrrolizidine alkaloids from Heliotropium megalanthum” (J Nat Prod, 1998), this text covers Activity and EC50 for four compounds.

The subject of test [1] is Leptinotarsa decemlineata. As to the kind of experiment: Insecticidal activity against haemolymph dosed Leptinotarsa decemlineata assessed as increase in mortality after 2 days. The test is classed as functional.
Test [2] deals with Leptinotarsa decemlineata. As to the kind of experiment: Antifeedant activity in Leptinotarsa decemlineata assessed as reduction of feeding by choice test. The class given is functional, organism-based.
The subject of test [3] is Leptinotarsa decemlineata. As to the kind of experiment: Antifeedant activity in Leptinotarsa decemlineata assessed as reduction of feeding by no-choice test. The class given is functional, organism-based.
The subject of test [4] is Spodoptera littoralis. As to the kind of experiment: Antifeedant activity in Spodoptera littoralis L6 larvae assessed as reduction of feeding at 5 ug/cm2 by choice test. Further details: scale not given: the % may be the effect or the level left. The test is classed as functional.
The test system of test [5] is Spodoptera littoralis. As to the kind of experiment: Antifeedant activity in Spodoptera littoralis L6 larvae assessed as reduction of feeding by choice test. The test is classed as functional, organism-based.
The subject of test [6] is Spodoptera littoralis. As to the kind of experiment: Antifeedant activity in Spodoptera littoralis L6 larvae assessed as reduction of feeding at 100 ug/cm2 by choice test. Also noted: scale not given: the % may be the effect or the level left. The test is classed as functional.
Test [7] concerns Leptinotarsa decemlineata. Briefly: Antifeedant activity in Leptinotarsa decemlineata assessed as reduction of feeding at 100 ug/cm2 by no-choice test. Further details: scale not given: the % may be the effect or the level left. The class given is functional.
Test [8] concerns Spodoptera littoralis. As to the kind of experiment: Insecticidal activity against orally dosed Spodoptera littoralis L6 larvae assessed as relative growth rate after 72 hrs. The class given is functional.
Test [9] concerns Spodoptera littoralis. As to the kind of experiment: Insecticidal activity against orally dosed Spodoptera littoralis L6 larvae assessed as relative consumption rate after 72 hrs. The test is classed as functional.
Test [10] has as its system Leptinotarsa decemlineata. As to the kind of experiment: Antifeedant activity in Leptinotarsa decemlineata assessed as reduction of feeding at 100 ug/cm2 by choice test. The class given is functional. Further details: scale not given: the % may be the effect or the level left.

In the case of `CC(=O)O[C@H](C)[C@](O)(C(=O)OC[C@@H]1CCN2CCC[C@@H]12)C(C)C`, in test [1], the Activity came out at 5%. Besides, the EC50 in test [2] was found to be 1.79 microg/cm2; in test [3], 2.92 microg/cm2.
As to `CO[C@@H](C)[C@](O)(C(=O)OCC1=CCN2CC[C@H](O)[C@@H]12)C(C)(C)O` [EUROPINE], in the test on Spodoptera littoralis [4], the Activity is reported as 67%.
On to `CC(C)[C@](O)(C(=O)OCC1=CCN2CC[C@@H](O)[C@@H]12)[C@@H](C)O` [LYCOPSAMINE], for which the EC50 is listed as 31.62 microg/cm2 in the test on Spodoptera littoralis [5] and 25.97 microg/cm2 in [3]. Besides, the Activity in the test on Spodoptera littoralis [6] worked out at 61.08%; in test [7] it was 68.4%; in test [1], 12%; with Spodoptera littoralis [8], 3.32 mg; in the test with Spodoptera littoralis [9], 21.19 mg; in test [10] it was 27.53%.
Turning to `CC(C)[C@@](O)(C(=O)OC[C@H]1CCN2CC[C@@H](O)[C@@H]12)[C@H](C)O` [MEGALANTHONINE], in [1], the Activity was determined as 10%.
